Results: patent US11655468B2, “Methods and compositions of chemically modified phage libraries” (priority 2018, dated 2023)
“Also recorded” adds a separate entry of the source. Read-outs that look alike come from different tables or passages of the source. Non-standard residues stand in square brackets, D forms with d. Residues, ends and D or L forms follow the SMILES beside them. *: point of attachment. X2 = O=C1OC2(c3ccc(C(=O)*)cc31)c1cc(Br)c(O)c(Br)c1Oc1c2cc(Br)c(O)c1Br; 5FAM = O=C1OC2(c3ccc(O)cc3Oc3cc(O)ccc32)c2ccc(C(=O)*)cc21; X1 = CC(=O)c1ccc(OCCCNC(=O)C*)cc1B(O)O; Dap = NC[C@H](N)C(=O)O

What was measured:
LOS− A. baumannii = assay: Photoinactivation of bacteria, A. baumannii (LOS−); format: cell-based, A. baumannii (AB5075 LOS−); conditions: for A. baumannii (LOS−) cell death by controls: at these concentrations, photoirradiation (FIG. 5C)
Method: (§1) Each bacterial strain was grown to an OD600˜0.7, washed and diluted with PBS (pH 7.4). The cells (˜1×10^8 cfu/mL) were incubated with eosin-conjugated peptides and various controls for 15 minutes. Half of the bacterial suspension was removed and placed in a 96-well plate (Corning 3595). The well was subjected to photoirradiation on the Zeiss microscope using the 20× objective and fluorescein filter to emit blue light for 15 minutes. Cells were diluted in LB media, spread on LB agar plates and incubated overnight at 37° C. The A. baumannii (LOS−) strain was spread on LB agar (+10 μg/mL polymyxin b) and incubated for 24 hours. The amount of cell killing was calculated by comparing the amount of colonies of treated bacteria to an untreated PBS control. All experiments were repeated and the average cell killing of two trials was plotted.

[1] = test system: wild-type (LOS+) A. baumannii; assay: Photoinactivation of bacteria, A. baumannii (LOS+); format: cell-based, A. baumannii (AB5075); conditions: same conditions, 2 μM, photoirradiation (FIG. 5D)
Method: as §1

Escherichia coli = assay: Flow cytometry and fluorescence microscopy of E. coli staining; format: cell-based
Method: (§2) Each bacterial strain was grown to an OD600˜0.5, washed and diluted with PBS (pH 7.4). The cells (˜1×10^7 cfu/mL) were incubated with various concentrations of FAM-labeled peptide with or without BSA in PBS. After incubation for 1 hour, samples were subjected to cytometric analysis. Data obtained was analyzed via BD FACSDiva software and median fluorescent values were computed from the generated histograms. All flow cytometry experiments were repeated and generated consistent results (see FIG. 14).
(§3) Each bacterial strain was grown to an OD600˜1.0, washed and diluted with PBS (pH 7.4). The cells (˜1×10^9 cfu/mL) were incubated with various concentrations of TAMRA-labeled peptide with or without BSA in PBS for 1 hour. The same microscopy procedure described was implemented using filter set 20 HE (excitation: BP 546/12, emission: BP 607/80) suitable for detection of TAMRA fluorescence and images were processed consistently using ImageJ software.

BSA = BSA (Bos taurus, UniProt P02769); assay: Fluorescence anisotropy protein binding (BSA); set-up: species or system bovine; conditions: 500 nM peptide, PBS pH 7.4, 1 hour, high protein concentrations
Method: (§4) (A) Flow cytometry comparison of HSA and BSA in enhancing KAM5 binding to S. aureus. (B) Assessing protein binding of KAM5 using fluorescence anisotropy, for which various concentrations of BSA or HSA were delivered to a 96-well plate (Corning 3603) in PBS (pH 7.4). Peptide was added at a final concentration of 500 nM and incubated for 1 hour. Anisotropy values were measured (Ex: 495 nm, Em: 532 nm) and plotted as an average of three trials with standard deviations. Fluorescein was used as a negative control. The results clearly show binding of KAM5 to these serum proteins.

S. aureus [2] = assay: Fluorescence microscopy of S. aureus staining by TAMRA-labeled peptides; format: cell-based, S. aureus (ATCC 6538)
Method: as §3

[3] = test system: methicillin-resistant strain of S. aureus (ATCC 43300); assay: Fluorescence microscopy of MRSA staining by TAMRA-labeled peptide; format: cell-based; conditions: 2 μM (FIG. 17)
Method: as §3

Bacillus subtilis = assay: Flow cytometry and fluorescence microscopy of B. subtilis staining; format: cell-based; conditions: up to 10 μM peptide; flow cytometry with 1 mg/mL BSA and microscopy
Method: as §2, §3

HSA = HSA (Homo sapiens, UniProt P02768); assay: Fluorescence anisotropy protein binding (HSA); conditions: 500 nM peptide, PBS pH 7.4, 1 hour, high protein concentrations
HSA, sequence (P02768 25-609): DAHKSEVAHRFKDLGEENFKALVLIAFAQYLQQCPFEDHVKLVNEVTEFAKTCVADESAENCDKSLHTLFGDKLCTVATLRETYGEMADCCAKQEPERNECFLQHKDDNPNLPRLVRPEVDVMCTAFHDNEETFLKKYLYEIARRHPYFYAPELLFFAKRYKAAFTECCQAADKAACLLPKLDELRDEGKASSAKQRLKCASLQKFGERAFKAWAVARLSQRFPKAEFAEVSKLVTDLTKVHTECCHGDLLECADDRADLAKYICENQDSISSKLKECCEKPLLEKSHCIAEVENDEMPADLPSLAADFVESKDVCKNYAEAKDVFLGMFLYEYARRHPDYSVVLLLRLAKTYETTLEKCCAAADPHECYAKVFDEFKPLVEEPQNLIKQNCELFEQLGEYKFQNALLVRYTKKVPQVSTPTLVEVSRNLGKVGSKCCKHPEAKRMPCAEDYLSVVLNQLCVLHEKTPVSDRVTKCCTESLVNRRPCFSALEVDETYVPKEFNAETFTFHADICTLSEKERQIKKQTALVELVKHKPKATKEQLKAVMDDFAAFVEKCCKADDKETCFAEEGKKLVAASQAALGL
Method: as §4

S. aureus [4] = format: cell-based, S. aureus (ATCC 6538); conditions: for S. aureus cell death by controls: 1 μM and 2 μM, photoirradiation
Method: as §1

S. aureus [5] = assay: Flow cytometry analysis of S. aureus staining by FAM-labeled peptides; format: cell-based, S. aureus (ATCC 6538); conditions: for S. aureus staining of control peptides: 1 μM peptide, 1 mg/mL BSA (FIG. 2C)
Method: as §2

[6] = Aggregation of peptide in flow cytometry samples; format: physicochemical; conditions: concentrations higher than 3 μM
MRSA = assay: Photoinactivation of bacteria, MRSA; format: cell-based, S. aureus (ATCC 43300); conditions: same experimental conditions, photoirradiation (FIG. 19)
Method: as §1

E. coli = assay: Photoinactivation of bacteria, E. coli; format: cell-based; conditions: 2 μM peptide followed by photoirradiation
Method: as §1

HEK293T cells = conditions: MTT, 24 hrs, with or without photoirradiation
Method: HEK293T cells were grown in complete DMEM (containing 10% FBS, 2 mM glutamine and 1% Penicillin/Streptomycin) to about 80% confluency in a 150 mm dish. Cells were removed from the plate with 0.25% trypsin protease solution (containing EDTA) at 37° C. for 5 minutes and pelleted (3,500 rpm, 5 minutes). Cells were diluted in DMEM, distributed to a 96-well plate (Corning 3595) at 30,000 cells/well (100 μL/well) and incubated for 24 hours to allow for cell adherence. 1 μL of 100× DMSO solutions were added to each well and incubations/photoirradiation were performed as described above. After 24 hours, the supernatant culture medium was carefully removed and the cells were incubated with 100 μL MTT (0.5 mg/mL in RPMI) for 4 hours followed by the addition of 10% SDS in 0.01 M HCl (100 μL) and incubation overnight.
(§5) All incubations were performed at 37° C. and 5% CO2. Absorbance readings were measured at 570 nm and cell viability was normalized to the DMSO control as an average of three trials for non-irradiated samples and an average of two trials for photoirradiated samples with standard deviations.

Jurkat cells = conditions: MTT, 24 hrs, with or without photoirradiation
Method: Jurkat cells were cultured in RPMI 1640 (containing 10% FBS, 2 mM glutamine, 1% Penicillin/Streptomycin) and maintained at 5×10^5 cells/mL. Cells were diluted in RPMI and distributed to a 96-well plate (Corning 3595) at 50,000 cells/well (200 μL/well). […] A positive control for viability of DMSO treated cells along with a positive control for cytotoxicity of camptothecin at 50 μM (5 mM DMSO stock) were included. For photoirradiation, the cells were incubated with the compound of interest for 15 minutes, each well was irradiated for 15 minutes (see photoinactivation protocol-paragraph 0053) and the plate was returned to the incubator for the remainder of the 24 hour incubation. Cells were centrifuged for 5 minutes (180 rcf) and the supernatant culture medium was carefully removed. 100 μL of 3-(4,5-dimethylthiazol-2-yl)-2,5-diphenyltetrazolium bromide (MTT, 0.5 mg/mL in RPMI) was added to each well and incubated for 4 hours followed by the addition of 10% SDS in 0.01 M HCl (100 μL) and incubation overnight.
as §5

B. subtilis = assay: Photoinactivation of bacteria, B. subtilis; format: cell-based; conditions: 2 μM peptide followed by photoirradiation
Method: as §1

A. baumannii (LOS−) [7] = assay: Flow cytometry analysis of A. baumannii (LOS−) staining; format: cell-based, A. baumannii (AB5075 LOS−); conditions: for binding of negative controls to A. baumannii (LOS−) compared with KAM8: 1 μM, 1 mg/mL BSA (FIG. 21B)
Method: as §2

A. baumannii (LOS−) [8] = assay: Fluorescence microscopy of A. baumannii (LOS−) staining; format: cell-based, A. baumannii (AB5075 LOS−); conditions: TAMRA labeled peptide, 2 μM
Method: as §3

[9] = test system: wild type A. baumannii (LOS+); assay: Fluorescence microscopy and flow cytometry of wild type A. baumannii (LOS+) staining; format: cell-based, A. baumannii (AB5075); conditions: microscopy, same conditions as LOS− strain (legend FIG. 5B: 10 μM for LOS+)
Method: as §2, §3

## ACmTLPNGPRCmGGGDap* [KAM8-Eosin]
LOS− A. baumannii; 15 min light
  cell killing of LOS− A. baumannii: > 90%
[1]
  killing of wild-type (LOS+) A. baumannii: little killing

## CC(=O)c1ccc(OCCCNC(=O)CSC[C@H](NC(=O)[C@H](C)N)C(=O)N[C@H](C(=O)N[C@@H](CO)C(=O)N2CCC[C@H]2C(=O)N[C@@H](CCCNC(=N)N)C(=O)N[C@@H](CO)C(=O)N[C@@H](Cc2c[nH]cn2)C(=O)N[C@@H](CCC(=O)O)C(=O)N[C@@H](CSCC(=O)NCCCOc2ccc(C(C)=O)c(B(O)O)c2)C(=O)NCC(=O)NCC(=O)NCC(=O)N[C@@H](CNC(=O)c2ccc3c(c2)C(=O)OC32c3ccc(O)cc3Oc3cc(O)ccc32)C(N)=O)C(C)C)cc1B(O)O [KAM5, ACmVSPRSHECmGGGDap*] (H-AC(X1)VSPRSHEC(X1)GGG[Dap](5FAM)-NH2; N-terminus assumed)
Escherichia coli; up to 10 μM peptide, flow cytometry with 1 mg/mL BSA and microscopy
  staining of E. coli: negligible staining
BSA
  binding to BSA: did show binding
S. aureus [2]; 2 μM peptide, BSA up to 10 mg/mL
  effect of BSA addition on S. aureus staining: did not inhibit
S. aureus [2]; TAMRA labeled peptide, 2 μM
  fluorescence staining of S. aureus cells: strong fluorescence staining
[3]
  staining of methicillin-resistant S. aureus compared with strain used in phage display: equally potent staining
Bacillus subtilis
  staining of B. subtilis: negligible staining
HSA
  binding to HSA: did show binding
S. aureus [4]
  S. aureus cell death by controls: did not elicit cell death
S. aureus [5]; flow cytometry (FIG. 18)
  potency for labeling S. aureus cells compared with KAM14-17: superior potency
S. aureus [5]; flow cytometry, 1 mg/mL BSA (FIG. 15)
  S. aureus binding potency compared with Hlys-AB1: much greater than that of Hlys-AB1

## ACAKIFTGCCGGGDap* [KAM14]
[6]
  aggregation: aggregation at higher concentrations

## CC(=O)c1ccc(OCCCNC(=O)CSC[C@H](NC(=O)[C@H](C)N)C(=O)N[C@H](C(=O)N[C@@H](CO)C(=O)N2CCC[C@H]2C(=O)N[C@@H](CCCNC(=N)N)C(=O)N[C@@H](CO)C(=O)N[C@@H](Cc2c[nH]cn2)C(=O)N[C@@H](CCC(=O)O)C(=O)N[C@@H](CSCC(=O)NCCCOc2ccc(C(C)=O)c(B(O)O)c2)C(=O)NCC(=O)NCC(=O)NCC(=O)N[C@@H](CNC(=O)c2ccc3c(c2)C(=O)OC32c3cc(Br)c(O)c(Br)c3Oc3c2cc(Br)c(O)c3Br)C(N)=O)C(C)C)cc1B(O)O [KAM5-Eosin, ACmVSPRSHECmGGGDap*] (H-AC(X1)VSPRSHEC(X1)GGG[Dap](X2)-NH2; N-terminus assumed)
MRSA
  cell killing of MRSA compared with S. aureus strain used in selection: comparable percentage of cell killing; also recorded: comparable potency
E. coli
  cell death of E. coli: no significant cell death
HEK293T cells
  mammalian cell toxicity, HEK 293T cells: no mammalian cell toxicity
Jurkat cells
  mammalian cell toxicity, Jurkat cells: no mammalian cell toxicity
S. aureus [4]; 1 μM
  cell killing of S. aureus: 74%
S. aureus [4]; 2 μM
  cell killing of S. aureus: 92%
B. subtilis
  cell death of B. subtilis: no significant cell death

## ACmGPTAKYICmGGGDap* [KAM6]
A. baumannii (LOS−) [7]
  binding of negative controls to A. baumannii (LOS−) compared with KAM8: much reduced binding
S. aureus [5]; flow cytometry
  S. aureus staining of control peptides: no bacterial staining

## CC(=O)c1ccc(OCCCNC(=O)CSC[C@H](NC(=O)[C@H](C)N)C(=O)N[C@H](C(=O)N[C@@H](CC(C)C)C(=O)N2CCC[C@H]2C(=O)N[C@@H](CC(N)=O)C(=O)NCC(=O)N2CCC[C@H]2C(=O)N[C@@H](CCCNC(=N)N)C(=O)N[C@@H](CSCC(=O)NCCCOc2ccc(C(C)=O)c(B(O)O)c2)C(=O)NCC(=O)NCC(=O)NCC(=O)N[C@@H](CNC(=O)c2ccc3c(c2)C(=O)OC32c3ccc(O)cc3Oc3cc(O)ccc32)C(N)=O)[C@@H](C)O)cc1B(O)O [KAM8, ACmTLPNGPRCmGGGDap*] (H-AC(X1)TLPNGPRC(X1)GGG[Dap](5FAM)-NH2; N-terminus assumed)
A. baumannii (LOS−) [8]
  fluorescence staining of LOS− A. baumannii: bright fluorescence staining
[9]
  fluorescence staining of wild type A. baumannii (LOS+): little fluorescence staining
Escherichia coli; microscopy, TAMRA labeled peptide, 2 μM, 1 mg/mL BSA (FIG. 22)
  binding to E. coli: no binding
S. aureus [2]; TAMRA labeled peptide, 2 μM, 1 mg/mL BSA (FIG. 22)
  binding to S. aureus: no binding
LOS− A. baumannii
  A. baumannii (LOS−) cell death by controls: did not elicit A. baumannii cell death
A. baumannii (LOS−) [7]; 1 mg/mL BSA
  effect of BSA on binding to A. baumannii (LOS−): enhanced bacterial staining

## ACTLPNGPRCGGGDap* [KAM8-Cyclic]
A. baumannii (LOS−) [7]
  binding of negative controls to A. baumannii (LOS−) compared with KAM8: much reduced binding

## ACVSPRSHECGGGDap* [KAM5-Cyclic]
S. aureus [5]; flow cytometry
  S. aureus staining of control peptides: little S. aureus staining

## O=C1OC2(c3ccccc31)c1cc(Br)c(O)c(Br)c1Oc1c2cc(Br)c(O)c1Br [eosin, reference compound]
LOS− A. baumannii
  A. baumannii (LOS−) cell death by controls: did not elicit A. baumannii cell death
S. aureus [4]
  S. aureus cell death by controls: did not elicit cell death
